In patent publication US20250346584A1, “NOVEL KAPPA OPIOID LIGANDS” (The Scripps Research Institute, priority 2012, published 2025):

Molecular target: kappa opioid receptor (OPRK1) (Homo sapiens (Human), UniProt P41145)
Assay: OPRK1 antagonist assay (b-arrestin-2-TEV / b-lactamase reporter cell line, EC80 U-50488 challenge)
Format: cell-based
Details: for IC50: read-out: IC50 nM (% inhib if other than 50%), antagonist mode vs EC80 U-50488, NA = not active at concentrations up to 10 μM

kappa opioid receptor (OPRK1), sequence (P41145 whole entry): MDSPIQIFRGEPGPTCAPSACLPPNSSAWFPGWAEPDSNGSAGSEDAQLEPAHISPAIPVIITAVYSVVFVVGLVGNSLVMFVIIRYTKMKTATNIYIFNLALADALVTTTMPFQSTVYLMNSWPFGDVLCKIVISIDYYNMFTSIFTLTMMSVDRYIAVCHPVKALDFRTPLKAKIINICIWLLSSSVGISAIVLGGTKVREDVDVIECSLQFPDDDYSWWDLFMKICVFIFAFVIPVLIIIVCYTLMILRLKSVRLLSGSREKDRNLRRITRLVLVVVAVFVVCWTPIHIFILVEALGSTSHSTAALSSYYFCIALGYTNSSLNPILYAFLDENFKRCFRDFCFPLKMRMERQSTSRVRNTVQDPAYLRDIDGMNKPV

Structure (SMILES)	IC50	% inhib if other than 50% (% inhibition at the concentration given)
CCOC(=O)c1cc2cc(C)ccc2nc1N1CCC(NC2CCCCC2)C(CO)C1 (stereo not shown) [compound 288]	15 nM	
COC1CN(c2nc3ccc(F)cc3cc2-c2nc(C)no2)CCC1NC1CCCCC1 (stereo not shown) [compound 242]	26 nM	
CCc1noc(-c2cc3cc(C)ccc3nc2N2CCC(NC3CCCCC3)C(OC)C2)n1 (stereo not shown) [compound 283]	4 nM	
CCOC(=O)c1cc(C(=O)OC)c(C)nc1N1CCC(NC2CCCCC2)C1 (stereo not shown) [compound 104]	2200 nM	
COC(=O)c1cc(Br)cnc1N1CCC(NC2CCCCC2)C(CO)C1 (stereo not shown) [compound 68]	40 nM	
CCOC(=O)/C=C/c1cnc(N2CCC(NC3CCCCC3)CC2)c(C(=O)OC)c1 [C59]	> 20000 nM	
Cc1noc(-c2cc3cc(F)ccc3nc2N2CCC(NC3CCOCC3)CC2)n1 [compound 476]	430 nM	
Cc1noc(-c2cc3ccc(Cl)cc3nc2N2CCC(NC3CCCCC3)CC2)n1 [compound 536]	19 nM	
Cc1ccc2nc(N3CCC(NCC4CCCCC4O)CC3)c(-c3nc(C)no3)cc2c1 (stereo not shown) [compound 352]	3.1 nM	
Cc1noc(-c2cc(C)c(C)nc2N2CCC(NC3CCCCC3)CC2)n1 [compound 221]	24 nM	
COC(=O)c1cnc(N2CCC(NC3CCCCC3)CC2)c([N+](=O)[O-])c1 [C36]	17000 nM	
Cc1ccc2nc(N3CCC(NC4CCOCC4)CC3)c(C(=O)OC(C)C)cc2c1 [compound 302]	274 nM	
COC(=O)c1cc(Br)cnc1N1CC2CN(C3CCCC3)CC2C1 (stereo not shown) [compound 50]	1000 nM	
Cc1ccc2nc(N3CCC(NC4CCCCC4)C(CO)C3)c(-c3nc(C4CC4)no3)cc2c1 (stereo not shown) [compound 304]	3.5 nM	
COC1CN(c2nc3ccccc3cc2C2=NCC(C)O2)CCC1NC1CCCCC1 (stereo not shown) [compound 258]	7160 nM	
COC1CN(c2nc3c(cc2-c2nc(C)no2)CCC3)CCC1NC1CCCCC1 (stereo not shown) [compound 210]	72 nM	

Structure (SMILES)	IC50	% inhib if other than 50% (% inhibition at the concentration given)
COC1CN(c2nc(C)c(C)cc2-c2nc(C)no2)CCC1NC1CCCCC1 (stereo not shown) [compound 165]	19 nM	
Cc1noc(-c2cc(Br)cnc2N2CCC(NC3CCCCC3)C(CO)C2)n1 (stereo not shown) [compound 145]	117 nM	
COC1CN(c2nnc(C)cc2C(=O)OC(C)C)CCC1NCC(C)C (stereo not shown) [compound 408]	57 nM	
CO[C@@H]1CN(c2nc3ccccc3cc2-c2cnc(C)cn2)CC[C@@H]1NC1CCCCC1 [compound 471]	170 nM	
Cc1ccc2nc(N3CCC(NC4CCCCC4O)CC3)c(-c3noc(C)n3)cc2c1 (stereo not shown) [compound 450]	11 nM	
COC(=O)c1cc(Br)cnc1N1CCC(NC2CCCCCC2)CC1 [compound 20]	110 nM	
COC(=O)c1cc(Br)cnc1N1CCC(NC2CCCC(C)C2C)CC1 (stereo not shown) [compound 23]	854 nM	
COC(=O)c1cc(I)cnc1N1CCC(NC2CCCCC2)C(O)C1 (stereo not shown) [compound 42]	18 nM	
CCc1noc(-c2cc3cc(C)ccc3nc2N2CC[C@@H](NC3CCCCC3)[C@@H](OC)C2)n1 [compound 297]	2 nM	
COC1CN(c2nc3ccccc3cc2-c2nc(C)no2)CCC1NC1CCCCCC1 (stereo not shown) [compound 311]	1 nM	
Cc1cnc(N2CCC(NC3CCCCC3)C(C)C2)c(-c2nc(C)no2)c1 (stereo not shown) [compound 194]	180 nM	
CC(=O)c1cc(C)cnc1N1CC[C@@H](NC2CCCCC2)[C@H](O)C1 [C60]	14000 nM	
CCOC(=O)c1cc(Br)cnc1N1CCC(NC2CCCCC2)CC1 [compound 38]	128 nM	
CO[C@H]1CN(c2nc3c(C)c(F)ccc3cc2-c2nc(C)no2)CC[C@H]1NC1CCCCC1 [compound 487]	15 nM	
CC(=O)c1cc2cc(C)ccc2nc1N1CCC(NC2CCCCC2)CC1 [compound 479]	211 nM	
Cc1ccc2nc(N3CCC(NC4CCCCC4C)CC3)c(-c3nc(C)no3)cc2c1 (stereo not shown) [compound 348]	1.3 nM	

Continued by falling IC50, values first:

IC50	% inhib if other than 50% (% inhibition at the concentration given)	Structure (SMILES)
17000 nM		COC(=O)c1cc(Br)cnc1N1CCC(NC2CCCCC2)C(OC(C)=O)C1 (stereo not shown) [C49]
7000 nM		CCc1noc(-c2cc(C)cnc2N2CC[C@@H](NC3CCCCC3)[C@H](O)C2)n1 [compound 168]
5200 nM	85%	O=C(O)c1cc(Br)cnc1N1CCC(NC2CCCCC2)CC1 [compound 34]
4360 nM		CCOC(=O)c1noc(-c2cc3cc(C)ccc3nc2N2CCC(NC3CCCCC3O)CC2)n1 (stereo not shown) [compound 336]
2700 nM		COC(=O)c1cc(Br)cnc1N1CC(O)C(NC2CCCCC2)C(O)C1 (stereo not shown) [compound 62]
1700 nM		COC(=O)c1cc(Br)cnc1N1CCCC(NC2CCCCC2)CC1 (stereo not shown) [compound 66]
1200 nM		COC(=O)c1cc(Br)cnc1N1CCC(NC2CC2)CC1 [compound 78]
566 nM		Cc1cnc(N2CC[C@@H](NC3CCCCC3)[C@H](O)C2)c(-c2ncccn2)c1 [compound 244]
564 nM		Cc1ccc2nc(N3CCC(N[C@H]4CCCC[C@@H]4O)CC3)c(-c3ccncn3)cc2c1 [compound 516]
459 nM		COC(=O)c1cc(Br)cnc1N1CC(O)C(NC2CCCCC2)C1 (stereo not shown) [compound 48]
398 nM		CC(C)OC(=O)c1cc(Br)cnc1N1CCC(NC2CCCCC2)CC1 [compound 39]
187 nM		Cc1noc(-c2nc3ccccc3nc2N2CC[C@@H](NC3CCCCC3)[C@H](O)C2)n1 [compound 188]
132 nM		Cc1cnc(N2CCC(NC3CCCCC3C)C(CO)C2)c(-c2nc(C)no2)c1 (stereo not shown) [compound 203]
112 nM		COC(=O)c1cc(I)cnc1N1CCC(NC2CCCCC2)C(O)C1 (stereo not shown) [compound 126]
106 nM		Cc1ccc2nc(N3CCC(NC[C@H](C)O)CC3)c(-c3nc(C)no3)cc2c1 [compound 422]
88 nM		COC(=O)c1cc(I)cnc1N1CCC(NC2CCCCC2)C1 (stereo not shown) [compound 35]
87 nM		COC(=O)c1cc(Br)cnc1N1CCC(NC2CCCCC2C)C(CO)C1 (stereo not shown) [compound 80]
52 nM		Cc1ccc2nc(N3CCC(NC4CCCCC4)C3)c(-c3nc(C)no3)cc2c1 (stereo not shown) [compound 461]
33 nM		COC1CN(c2nc3ccccc3cc2-c2nc(C)no2)CCC1NC1CCCCC1 (stereo not shown) [compound 292]
22 nM		Cc1noc(-c2cc3cc(F)ccc3nc2N2CCC(NC3CCCCC3)C(CO)C2)n1 (stereo not shown) [compound 243]
14 nM		Cc1noc(-c2cc3ccccc3nc2N2CCC(NC3CCCCCC3)C(CO)C2)n1 (stereo not shown) [compound 200]
14 nM		COC1CN(c2nc3ccc(Cl)cc3cc2-c2nc(C)no2)CCC1NC1CCCCC1 (stereo not shown) [compound 240]
12 nM		CCOC(=O)c1cc(C(=O)OC)c(C)nc1N1CC[C@@H](NC2CCCCC2)[C@H](O)C1 [compound 119]
11 nM		Cc1noc(-c2cc3c(F)cccc3nc2N2CC[C@@H](NC3CCCCC3)[C@H](O)C2)n1 [compound 251]
10 nM		Cc1nc(-c2cc3ccc(F)cc3nc2N2CCC(NC3CCCC3)CC2)no1 [compound 481]
8 nM		Cc1noc(-c2cc3ccccc3nc2N2CCC(NC3CCOCC3)CC2)n1 [compound 232]
5 nM		Cc1noc(-c2cc3ccccc3nc2N2CCC(NC3CCCCC3)C(CO)C2)n1 (stereo not shown) [compound 186]
3 nM		Cc1ccc2nc(N3CCC(NC4CCCCC4)C(CO)C3)c(-c3nc(C)no3)cc2c1 (stereo not shown) [compound 215]
